In ChEMBL document CHEMBL5584328, “Integrating computational and experimental chemical biology revealed variable anticancer activities of phosphodiesterase isoenzyme 5 inhibitors (PDE5i) in lung cancer” (RSC Med Chem, 2024):
Blank lines part the entries; values can stand above or below the molecule they belong to. Calls of active or inactive are those of the source. No cut-off for these calls is given here.

How the values were obtained:
[1] = tested on: A549; test: Reduction in PDE5 protein expression in human A549 cells at 0.25 to 0.5 IC50 measured after 48 hrs by Western blot analysis; type: functional, cell-based
[2] = tested on: A549; test: Antiproliferative activity against human A549 cells measured after 72 hrs by MTT assay; type: functional, cell-based; conditions: for IC50: A549, 72 h
[3] = tested on: A549; test: Antiproliferative activity against human A549 cells measured after 24 hrs by MTT assay; type: functional, cell-based; conditions: for IC50: A549, 24 h
[4] = tested on: A549; test: Potentiation of cisplatin-induced cytotoxicity against human A549 cells assessed as combination index at 1:4 ratio of cisplatin to compound measured after 48 hrs by MTT assay; type: functional
[5] = tested on: NCI-H661; test: Antiproliferative activity against human NCI-H661 cells measured after 24 hrs by MTT assay; type: functional, cell-based; conditions: for IC50: NCI-H661, 24 h
[6] = tested on: NCI-H1299; test: Potentiation of cisplatin-induced cytotoxicity against human NCI-H1299 cells assessed as fold reduction in cisplatin IC50 at 1:35 ratio of cisplatin to compound measured after 48 hrs by MTT assay relative to cisplatin alone; type: functional
[7] = tested on: NCI-H1299; test: Potentiation of raloxifene-induced cytotoxicity against human NCI-H1299 cells assessed as combination index at 1:20 ratio of raloxifene to compound measured after 48 hrs by MTT assay; type: functional
[8] = tested on: NCI-H1299; test: Potentiation of raloxifene-induced cytotoxicity against human NCI-H1299 cells assessed as fold reduction in raloxifene IC50 at 1:20 ratio of raloxifene to compound measured after 48 hrs by MTT assay relative to raloxifene alone; type: functional
[9] = tested on: NCI-H661; test: Potentiation of cisplatin-induced cytotoxicity against human NCI-H661 cells assessed as fold reduction in cisplatin IC50 at 1:14 ratio of cisplatin to compound measured after 48 hrs by MTT assay relative to cisplatin alone; type: functional
[10] = tested on: NCI-H661; test: Antiproliferative activity against human NCI-H661 cells by MTT assay; type: functional, cell-based; conditions: time 24-72 hrs, TDE = time-dependent effect
[11] = tested on: NCI-H661; test: Potentiation of raloxifene-induced cytotoxicity against human NCI-H661 cells assessed as fold reduction in raloxifene IC50 at 1:7 ratio of raloxifene to compound measured after 48 hrs by MTT assay relative to raloxifene alone; type: functional
[12] = tested on: A549; test: Reduction in PDE5 gene expression in human A549 cells at 0.1 IC50 measured after 48 hrs by qRT-PCR analysis; type: functional, cell-based
[13] = tested on: A549; test: Reduction in Bcl-2 gene expression in human A549 cells at 0.1 IC50 measured after 48 hrs by qRT-PCR analysis; type: functional, cell-based
[14] = tested on: NCI-H1299; test: Antiproliferative activity against human NCI-H1299 cells measured after 48 hrs by MTT assay; type: functional, cell-based; conditions: for IC50: NCI-H1299, 48 h
[15] = tested on: NCI-H661; test: Potentiation of cisplatin-induced cytotoxicity against human NCI-H661 cells assessed as combination index at 1:14 ratio of cisplatin to compound measured after 48 hrs by MTT assay; type: functional
[16] = tested on: NCI-H661; test: Antiproliferative activity against human NCI-H661 cells measured after 48 hrs by MTT assay; type: functional, cell-based; conditions: for IC50: NCI-H661, 48 h
[17] = tested on: A549; test: Inhibition of colony formation in human A549 cells assessed as reduction in size of colonies at 52.5 to 105 uM measured after 48 hrs by colony formation assay; type: functional, cell-based; conditions: dose 52.5-105 µM
[18] = tested on: NCI-H661; test: Antiproliferative activity against human NCI-H661 cells measured after 72 hrs by MTT assay; type: functional, cell-based; conditions: for IC50: NCI-H661, 72 h
[19] = tested on: NCI-H661; test: Potentiation of raloxifene-induced cytotoxicity against human NCI-H661 cells assessed as combination index at 1:7 ratio of raloxifene to compound measured after 48 hrs by MTT assay; type: functional
[20] = tested on: A549; test: Potentiation of cisplatin-induced cytotoxicity against human A549 cells assessed as fold reduction in cisplatin IC50 at 1:4 ratio of cisplatin to compound measured after 48 hrs by MTT assay relative to cisplatin alone; type: functional
[21] = tested on: A549; test: Cell cycle arrest in human A549 cells assessed as increase in cell population at G2 phase at 52.5 uM measured after 48 hrs by propidium iodide staining based flow cytometry; type: functional
[22] = tested on: A549; test: Potentiation of raloxifene-induced cytotoxicity against human A549 cells assessed as fold reduction in raloxifene IC50 at 1:2 ratio of raloxifene to compound measured after 48 hrs by MTT assay relative to raloxifene alone; type: functional
[23] = tested on: A549; test: Antiproliferative activity against human A549 cells measured after 48 hrs by MTT assay; type: functional, cell-based; conditions: for IC50: A549, 48 h
[24] = tested on: NCI-H1299; test: Potentiation of cisplatin-induced cytotoxicity against human NCI-H1299 cells assessed as combination index at 1:35 ratio of cisplatin to compound measured after 48 hrs by MTT assay; type: functional
[25] = tested on: A549; test: Potentiation of raloxifene-induced cytotoxicity against human A549 cells assessed as combination index at 1:2 ratio of raloxifene to compound measured after 48 hrs by MTT assay; type: functional
[26] = tested on: NCI-H1299; test: Antimigratory activity against human NCI-H1299 cells assessed as reduction in wound closure measured after 24 hrs by wound healing assay; type: functional, cell-based
[27] = tested on: NCI-H1299; test: Antiproliferative activity against human NCI-H1299 cells measured after 72 hrs by MTT assay; type: functional, cell-based; conditions: for IC50: NCI-H1299, 72 h
[28] = tested on: A549; test: Inhibition of colony formation in human A549 cells assessed as reduction in number of colonies at 52.5 to 105 uM measured after 48 hrs by colony formation assay; type: functional, cell-based; conditions: dose 52.5-105 µM
[29] = tested on: A549; test: Induction of apoptosis in human A549 cells assessed as increase in apoptotic cells at 210 uM measured after 48 hrs by Annexin V-FITC/PI staining based flow cytometry relative to control; type: functional
[30] = tested on: NCI-H1299; test: Antiproliferative activity against human NCI-H1299 cells measured after 24 hrs by MTT assay; type: functional, cell-based; conditions: for IC50: NCI-H1299, 24 h
[31] = tested on: A549; test: Antiproliferative activity against human A549 cells by MTT assay; type: functional, cell-based; conditions: time 24-72 hrs, TDE = time-dependent effect
[32] = tested on: NCI-H1299; test: Antiproliferative activity against human NCI-H1299 cells by MTT assay; type: functional, cell-based; conditions: time 24-72 hrs, TDE = time-dependent effect
[33] = tested on: NCI-H661; test: Potentiation of raloxifene-induced cytotoxicity against human NCI-H661 cells assessed as combination index at 1:5 ratio of raloxifene to compound measured after 48 hrs by MTT assay; type: functional
[34] = tested on: A549; test: Inhibition of colony formation in human A549 cells assessed as reduction in size of colonies at 85 to 170 uM measured after 48 hrs by colony formation assay; type: functional, cell-based; conditions: dose 85-170 µM
[35] = tested on: A549; test: Inhibition of colony formation in human A549 cells assessed as reduction in number of colonies at 85 to 170 uM measured after 48 hrs by colony formation assay; type: functional, cell-based; conditions: dose 85-170 µM
[36] = tested on: NCI-H1299; test: Potentiation of cisplatin-induced cytotoxicity against human NCI-H1299 cells assessed as combination index at 1:9 ratio of cisplatin to compound measured after 48 hrs by MTT assay; type: functional
[37] = tested on: A549; test: Potentiation of raloxifene-induced cytotoxicity against human A549 cells assessed as combination index at 1:4 ratio of raloxifene to compound measured after 48 hrs by MTT assay; type: functional
[38] = tested on: NCI-H661; test: Potentiation of cisplatin-induced cytotoxicity against human NCI-H661 cells assessed as fold reduction in cisplatin IC50 at 1:9 ratio of cisplatin to compound measured after 48 hrs by MTT assay relative to cisplatin alone; type: functional
[39] = tested on: NCI-H661; test: Potentiation of raloxifene-induced cytotoxicity against human NCI-H661 cells assessed as fold reduction in raloxifene IC50 at 1:5 ratio of raloxifene to compound measured after 48 hrs by MTT assay relative to raloxifene alone; type: functional
[40] = tested on: A549; test: Cell cycle arrest in human A549 cells assessed as increase in cell population at G0/G1 phase at 85 uM measured after 48 hrs by propidium iodide staining based flow cytometry; type: functional
[41] = tested on: A549; test: Induction of apoptosis in human A549 cells assessed as increase in apoptotic cells at 340 uM measured after 48 hrs by Annexin V-FITC/PI staining based flow cytometry relative to control; type: functional
[42] = tested on: A549; test: Potentiation of cisplatin-induced cytotoxicity against human A549 cells assessed as combination index at 1:7 ratio of cisplatin to compound measured after 48 hrs by MTT assay; type: functional
[43] = tested on: A549; test: Potentiation of raloxifene-induced cytotoxicity against human A549 cells assessed as fold reduction in raloxifene IC50 at 1:4 ratio of raloxifene to compound measured after 48 hrs by MTT assay relative to raloxifene alone; type: functional
[44] = tested on: NCI-H1299; test: Potentiation of raloxifene-induced cytotoxicity against human NCI-H1299 cells assessed as fold reduction in raloxifene IC50 at 1:5 ratio of raloxifene to compound measured after 48 hrs by MTT assay relative to raloxifene alone; type: functional
[45] = tested on: NCI-H1299; test: Potentiation of raloxifene-induced cytotoxicity against human NCI-H1299 cells assessed as combination index at 1:5 ratio of raloxifene to compound measured after 48 hrs by MTT assay; type: functional
[46] = tested on: A549; test: Potentiation of cisplatin-induced cytotoxicity against human A549 cells assessed as fold reduction in cisplatin IC50 at 1:7 ratio of cisplatin to compound measured after 48 hrs by MTT assay relative to cisplatin alone; type: functional
[47] = tested on: NCI-H1299; test: Potentiation of cisplatin-induced cytotoxicity against human NCI-H1299 cells assessed as fold reduction in cisplatin IC50 at 1:9 ratio of cisplatin to compound measured after 48 hrs by MTT assay relative to cisplatin alone; type: functional
[48] = tested on: NCI-H661; test: Potentiation of cisplatin-induced cytotoxicity against human NCI-H661 cells assessed as combination index at 1:9 ratio of cisplatin to compound measured after 48 hrs by MTT assay; type: functional

IC50 [2]: 73.9 µM
IC50 [3]: 354 µM
IC50 [5]: 876 µM
IC50 [14]: 274 µM
IC50 [16]: 281 µM
IC50 [18]: 243 µM
IC50 [23]: 106 µM
IC50 [27]: 127 µM
IC50 [30]: 359 µM
Compound: CN1CC(=O)N2[C@H](c3ccc4c(c3)OCO4)c3[nH]c4ccccc4c3C[C@@H]2C1=O [TADALAFIL]
Activity [1]: Dose-Dependent Effect
Activity [2]: Dose-Dependent Effect
Activity [3]: Dose-Dependent Effect
CI [4]: 0.92
Activity [5]: Dose-Dependent Effect
fold change (FC) [6]: 2.6
CI [7]: 0.44
fold change (FC) [8]: 5.2
fold change (FC) [9]: 2
Activity [10]: Tde
fold change (FC) [11]: 2.1
Activity [12]: Active
Activity [13]: Active
Activity [14]: Dose-Dependent Effect
CI [15]: 0.89
Activity [16]: Dose-Dependent Effect
inhibition [17]: Active
Activity [18]: Dose-Dependent Effect
CI [19]: 0.89
fold change (FC) [20]: 2.1
Activity [21]: Active
fold change (FC) [22]: 1.9
Activity [23]: Dose-Dependent Effect
CI [24]: 0.78
CI [25]: 0.98
Activity [26]: Dose-Dependent Effect
Activity [27]: Dose-Dependent Effect
inhibition [28]: Active
Activity [29]: 22.2%
Activity [30]: Dose-Dependent Effect
Activity [31]: Tde
Activity [32]: Tde

IC50 [2]: 131 µM
IC50 [3]: 127 µM
IC50 [5]: 264 µM
IC50 [14]: 184 µM
IC50 [16]: 186 µM
IC50 [18]: 78.5 µM
IC50 [23]: 170 µM
IC50 [27]: 169 µM
IC50 [30]: 162 µM
Compound: COc1ccc(CNc2nc(N3CCC[C@H]3CO)ncc2C(=O)NCc2ncccn2)cc1Cl [AVANAFIL]
Activity [1]: Dose-Dependent Effect
Activity [2]: Dose-Dependent Effect
Activity [3]: Dose-Dependent Effect
Activity [5]: Dose-Dependent Effect
CI [33]: 0.9
inhibition [34]: Active
Activity [10]: Tde
Activity [12]: Active
inhibition [35]: Active
Activity [13]: Active
Activity [14]: Dose-Dependent Effect
Activity [16]: Dose-Dependent Effect
CI [36]: 0.69
Activity [18]: Dose-Dependent Effect
CI [37]: 0.99
fold change (FC) [38]: 2.4
Activity [23]: Dose-Dependent Effect
fold change (FC) [39]: 2.7
Activity [40]: Active
Activity [26]: Dose-Dependent Effect
Activity [27]: Dose-Dependent Effect
Activity [41]: 44%
CI [42]: 0.95
Activity [30]: Dose-Dependent Effect
fold change (FC) [43]: 1.9
fold change (FC) [44]: 3
CI [45]: 0.73
fold change (FC) [46]: 2.1
fold change (FC) [47]: 2.8
CI [48]: 0.89
Activity [31]: Tde
Activity [32]: Tde

IC50 [14]: > 500 µM
IC50 [16]: > 500 µM
IC50 [23]: > 500 µM
Compound: CCCc1nn(C)c2c(=O)[nH]c(-c3cc(S(=O)(=O)N4CCN(C)CC4)ccc3OCC)nc12 [SILDENAFIL]

IC50 [14]: 45 µM
IC50 [16]: 44.5 µM
IC50 [23]: 45.6 µM
Compound: O=C(c1ccc(OCCN2CCCCC2)cc1)c1c(-c2ccc(O)cc2)sc2cc(O)ccc12 [RALOXIFENE]
